The values below come from the supplement of paper PMC10307832.

Test in all cases: relative viability (nuclei count vs DMSO), 5 days (fraction); higher = more cells survive
Compound in the experiment “Temozolomide + OSI-027”: Cn1nnc2c(C(N)=O)ncn2c1=O [Temozolomide] + COc1cccc2cc(-c3nc([C@H]4CC[C@H](C(=O)O)CC4)n4ncnc(N)c34)[nH]c12 [OSI-027] (partner 0.5 µM)
Put shortly: (§1)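 After 5 days of treatment, lung cancer cells in 1536-well plates were fixed and stained in a single step (final 0.05% Triton X-100, 1% formaldehyde, 1 ug/ml Hoechst) and their nuclei counted on 4× images. Treatment had been applied by pin tool the day after seeding as one drug alone or as a fixed anchor-drug dose with five library-drug doses (not always all listed) in √10 steps. Relative viability is the nuclei count of treated wells divided by that of vehicle wells, and values are medians of duplicate plates.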

Compound in experiment [1]: Cn1nnc2c(C(N)=O)ncn2c1=O [Temozolomide] + CC(=O)Nc1cccc(-n2c(=O)n(C3CC3)c(=O)c3c(Nc4ccc(I)cc4F)n(C)c(=O)c(C)c32)c1 [Trametinib] (partner 0.02 µM)
The procedure, abridged: as §1

Compound in experiment [2]: Cn1nnc2c(C(N)=O)ncn2c1=O [Temozolomide] + C[C@@H](Oc1cc(-c2cnn(C3CCNCC3)c2)cnc1N)c1c(Cl)ccc(F)c1Cl [Crizotinib] (partner 1 µM)
Put shortly: as §1

Compound in the experiment “AZD5582 + Olaparib”: C[C@@H](C(=O)N[C@@H](C1CCCCC1)C(=O)N2CCC[C@H]2C(=O)N[C@@H]3[C@@H](CC4=CC=CC=C34)OCC#CC#CCO[C@@H]5CC6=CC=CC=C6[C@@H]5NC(=O)[C@@H]7CCCN7C(=O)[C@H](C8CCCCC8)NC(=O)[C@H](C)NC)NC [AZD5582] + O=C(c1cc(Cc2n[nH]c(=O)c3ccccc23)ccc1F)N1CCN(C(=O)C2CC2)CC1 [Olaparib] (partner 8 µM)
Put shortly:
as §1

On to NCI-H2009, for which the relative viability with Temozolomide + OSI-027 (first compound 0.2 µM) was found to be 0.82; with Temozolomide + OSI-027 (first compound 0.6325 µM) it was 0.597; with Temozolomide + OSI-027 (first compound 2 µM), 0.682; in the experiment with Temozolomide + OSI-027 (first compound 6.325 µM) it was 0.699; in the experiment with Temozolomide + OSI-027 (first compound 20 µM) it was 0.698; in experiment [1] (first compound 0.2 µM) it was 0.279. In addition, the relative viability in experiment [1] (first compound 0.6325 µM) is 0.273; in experiment [1] (first compound 2 µM), 0.389; in experiment [1] (first compound 6.325 µM), 0.268; in experiment [1] (first compound 20 µM), 0.265; in experiment [2] (first compound 0.2 µM) it was 1.07; in experiment [2] (first compound 0.6325 µM), 1.07. Further, the relative viability in experiment [2] (first compound 2 µM) turned out to be 1.06; in experiment [2] (first compound 6.325 µM) it was 1.03; in experiment [2] (first compound 20 µM), 1.07; with AZD5582 + Olaparib (first compound 0.001581 µM), 0.636; with AZD5582 + Olaparib (first compound 0.005 µM), 0.703; in the experiment with AZD5582 + Olaparib (first compound 0.01581 µM) it was 0.706. The relative viability in the experiment with AZD5582 + Olaparib (first compound 0.05 µM) came out at 0.751.

With NCI-H1437, the relative viability in the experiment with Temozolomide + OSI-027 (first compound 0.2 µM) came out at 0.863; with Temozolomide + OSI-027 (first compound 0.6325 µM), 0.877; with Temozolomide + OSI-027 (first compound 2 µM), 0.952; with Temozolomide + OSI-027 (first compound 6.325 µM), 0.922; in the experiment with Temozolomide + OSI-027 (first compound 20 µM), 0.906; in experiment [1] (first compound 0.2 µM), 0.539. In addition, the relative viability was 0.544 in experiment [1] (first compound 0.6325 µM); 0.561 in experiment [1] (first compound 2 µM); 0.594 in experiment [1] (first compound 6.325 µM); 0.565 in experiment [1] (first compound 20 µM); 0.94 in experiment [2] (first compound 0.2 µM); 1.03 in experiment [2] (first compound 0.6325 µM). The relative viability in experiment [2] (first compound 2 µM) came to 0.968; in experiment [2] (first compound 6.325 µM), 0.995; in experiment [2] (first compound 20 µM) it was 0.999; with AZD5582 + Olaparib (first compound 0.001581 µM), 0.711; in the experiment with AZD5582 + Olaparib (first compound 0.005 µM) it was 0.649; with AZD5582 + Olaparib (first compound 0.01581 µM) it was 0.648. Further, the relative viability with AZD5582 + Olaparib (first compound 0.05 µM) came out at 0.623.

NCI-H647: the relative viability with Temozolomide + OSI-027 (first compound 0.2 µM) came to 0.676; with Temozolomide + OSI-027 (first compound 0.6325 µM), 0.661; with Temozolomide + OSI-027 (first compound 2 µM), 0.776; with Temozolomide + OSI-027 (first compound 6.325 µM) it was 0.431; with Temozolomide + OSI-027 (first compound 20 µM) it was 0.185; in experiment [1] (first compound 0.2 µM), 0.528. In addition, the relative viability in experiment [1] (first compound 0.6325 µM) is 0.537; in experiment [1] (first compound 2 µM), 0.56; in experiment [1] (first compound 6.325 µM) it was 0.353; in experiment [1] (first compound 20 µM), 0.227; in experiment [2] (first compound 0.2 µM), 1.3; in experiment [2] (first compound 0.6325 µM), 1.1. The relative viability in experiment [2] (first compound 2 µM) amounted to 1.09; in experiment [2] (first compound 6.325 µM), 0.85; in experiment [2] (first compound 20 µM), 0.318; with AZD5582 + Olaparib (first compound 0.001581 µM), 0.492; with AZD5582 + Olaparib (first compound 0.005 µM), 0.587; with AZD5582 + Olaparib (first compound 0.01581 µM), 0.6. Besides, the relative viability in the experiment with AZD5582 + Olaparib (first compound 0.05 µM) amounted to 0.589.

For NCI-H1915, the relative viability came to 0.693 with Temozolomide + OSI-027 (first compound 0.2 µM); 0.614 with Temozolomide + OSI-027 (first compound 0.6325 µM); 0.602 with Temozolomide + OSI-027 (first compound 2 µM); 0.388 in the experiment with Temozolomide + OSI-027 (first compound 6.325 µM); 0.326 with Temozolomide + OSI-027 (first compound 20 µM); 0.29 in experiment [1] (first compound 0.2 µM). The relative viability in experiment [1] (first compound 0.6325 µM) came to 0.288; in experiment [1] (first compound 2 µM) it was 0.32; in experiment [1] (first compound 6.325 µM), 0.24; in experiment [1] (first compound 20 µM), 0.201; in experiment [2] (first compound 0.2 µM), 0.922; in experiment [2] (first compound 0.6325 µM), 0.816. Besides, the relative viability in experiment [2] (first compound 2 µM) was found to be 0.754; in experiment [2] (first compound 6.325 µM), 0.597; in experiment [2] (first compound 20 µM), 0.342; with AZD5582 + Olaparib (first compound 0.001581 µM), 0.279; with AZD5582 + Olaparib (first compound 0.005 µM), 0.244; with AZD5582 + Olaparib (first compound 0.01581 µM), 0.25. In addition, in the experiment with AZD5582 + Olaparib (first compound 0.05 µM), the relative viability is 0.226.

For the cell line BEN, the relative viability is 0.326 in the experiment with Temozolomide + OSI-027 (first compound 0.2 µM); 0.289 with Temozolomide + OSI-027 (first compound 0.6325 µM); 0.296 in the experiment with Temozolomide + OSI-027 (first compound 2 µM); 0.283 with Temozolomide + OSI-027 (first compound 6.325 µM); 0.306 with Temozolomide + OSI-027 (first compound 20 µM); 0.813 in experiment [1] (first compound 0.2 µM). In addition, the relative viability in experiment [1] (first compound 0.6325 µM) was 1.12; in experiment [1] (first compound 2 µM), 1.1; in experiment [1] (first compound 6.325 µM), 1; in experiment [1] (first compound 20 µM), 0.853; in experiment [2] (first compound 0.2 µM), 0.649; in experiment [2] (first compound 0.6325 µM), 0.858. Also, the relative viability in experiment [2] (first compound 2 µM) was determined as 0.814; in experiment [2] (first compound 6.325 µM), 0.815; in experiment [2] (first compound 20 µM), 0.717; in the experiment with AZD5582 + Olaparib (first compound 0.001581 µM), 1.09; in the experiment with AZD5582 + Olaparib (first compound 0.005 µM), 0.985; with AZD5582 + Olaparib (first compound 0.01581 µM), 1.02. Besides, in the experiment with AZD5582 + Olaparib (first compound 0.05 µM), the relative viability is 1.17.

As to LC-2-ad, the relative viability with Temozolomide + OSI-027 (first compound 0.2 µM) came to 0.782; with Temozolomide + OSI-027 (first compound 0.6325 µM), 0.917; with Temozolomide + OSI-027 (first compound 2 µM), 0.926; with Temozolomide + OSI-027 (first compound 6.325 µM) it was 0.825; with Temozolomide + OSI-027 (first compound 20 µM) it was 0.737; in experiment [1] (first compound 0.2 µM), 0.935. Besides, the relative viability in experiment [1] (first compound 0.6325 µM) was found to be 0.926; in experiment [1] (first compound 2 µM) it was 0.912; in experiment [1] (first compound 6.325 µM), 0.895; in experiment [1] (first compound 20 µM) it was 0.859; in experiment [2] (first compound 0.2 µM) it was 0.455; in experiment [2] (first compound 0.6325 µM) it was 0.443. Besides, the relative viability in experiment [2] (first compound 2 µM) was found to be 0.51; in experiment [2] (first compound 6.325 µM) it was 0.443; in experiment [2] (first compound 20 µM), 0.437; with AZD5582 + Olaparib (first compound 0.001581 µM), 0.68; with AZD5582 + Olaparib (first compound 0.005 µM), 0.715; with AZD5582 + Olaparib (first compound 0.01581 µM), 0.659. For the same cell line, the relative viability in the experiment with AZD5582 + Olaparib (first compound 0.05 µM) is 0.805.

Turning to LXF-289, the relative viability in the experiment with Temozolomide + OSI-027 (first compound 0.2 µM) was 0.772; with Temozolomide + OSI-027 (first compound 0.6325 µM), 0.863; in the experiment with Temozolomide + OSI-027 (first compound 2 µM), 0.927; with Temozolomide + OSI-027 (first compound 6.325 µM) it was 0.76; with Temozolomide + OSI-027 (first compound 20 µM), 0.63; in experiment [1] (first compound 0.2 µM), 0.693. In addition, the relative viability is 0.693 in experiment [1] (first compound 0.6325 µM); 0.683 in experiment [1] (first compound 2 µM); 0.653 in experiment [1] (first compound 6.325 µM); 0.667 in experiment [1] (first compound 20 µM); 0.825 in experiment [2] (first compound 0.2 µM); 0.82 in experiment [2] (first compound 0.6325 µM). The relative viability was 0.761 in experiment [2] (first compound 2 µM); 0.791 in experiment [2] (first compound 6.325 µM); 0.76 in experiment [2] (first compound 20 µM); 0.98 with AZD5582 + Olaparib (first compound 0.001581 µM); 0.995 in the experiment with AZD5582 + Olaparib (first compound 0.005 µM); 0.953 in the experiment with AZD5582 + Olaparib (first compound 0.01581 µM). Moreover, the relative viability with AZD5582 + Olaparib (first compound 0.05 µM) is 1.02.
